Reference: paper PMC11195807, “Development of a multi-targeted chemotherapeutic approach based on G-quadruplex stabilisation and carbonic anhydrase inhibition” (Journal of Enzyme Inhibition and Medicinal Chemistry, 2024)
Several values for one entry are separate records, joined by “and”; a condition that tells them apart may be missing. Equal entries are not always repeated.

Assays:
[1] = test system: Tel23; experiment: CD melting experiments, Tel23 GQ; assay type: binding, human; settings: for ΔT1/2 Tel23: 2 molar equiv compound, T1/2 of DNA alone 53.5 °C; for ΔΔT1/2 Tel23: ΔT1/2 of compound minus ΔT1/2 of berberine, 2 molar equiv
Excerpt: (§1) The 21 synthesised MTDLs were screened for their ability to bind to and stabilise DNA GQ-forming sequences, compared to berberine, by CD experiments. Indeed, circular dichroism has shown to be outstandingly useful and informative for noncanonical nucleic acid secondary structures. For this purpose, a G-rich 23-nucleotide truncation (23-nt) of the human telomeric sequence (Tel23) and two G-rich motifs from the promoter regions of c-KIT (c-Kit1) and c-MYC (c-Myc) oncogenes were employed. First, the overall topology adopted by each DNA sequence in K^+-containing buffer was verified by CD spectra. […] GQ conformation (Figure S1, Supporting Information). On the other hand, c-Kit1 and c-Myc sequences adopted a parallel GQ conformation, showing a distinctive positive band at around 260 nm and a negative one at ∼240 nm in their CD spectra (Figures S2 and S3, Supporting Information).
(§2) Afterwards, the GQ-stabilising properties of the molecules were assessed by CD melting experiments, measuring the differences in the apparent melting temperatures of the DNA in the presence and absence of compounds (ΔT1/2) (Figures S4–S6 and Table S2, Supporting Information). […] This could be explained by considering the higher accessibility of the external G-tetrads in the case of parallel GQs compared to the hybrid one[52], which would allow the additional CAI moiety of conjugated compounds to be better accommodated in the binding site. […] . […] .

[2] = test system: Hairpin; experiment: CD melting experiments, hairpin DNA duplex; settings: 2 molar equiv compound, T1/2 of DNA alone 66.0 °C
[3] = molecular target: T1, hCA IX (Homo sapiens, UniProt Q16790); experiment: stopped-flow CO2 hydrase assay, hCA IX; assay type: biochemical; settings: for Selectivity index (SI) I/IX: hCA IX over hCA I; for Selectivity index (SI) II/IX: hCA IX over hCA II; for Ki: mean ± SEM of three assays
T1 construct: made in house
Excerpt: (§3) An Applied Photophysics stopped-flow instrument has been used for assaying the CA-catalysed CO2 hydration activity, as reported earlier. […] All hCA isoforms were recombinant proteins, being obtained in-house as reported earlier.

[4] = molecular target: T2, hCA I (Homo sapiens, UniProt P00915); experiment: stopped-flow CO2 hydrase assay, hCA I; assay type: biochemical
T2 construct: made in house
Protocol: (§4) An Applied Photophysics stopped-flow instrument has been used for assaying the CA-catalysed CO2 hydration activity, as reported earlier. The enzyme concentrations were in the range 5–12 nM. All hCA isoforms were recombinant proteins, being obtained in-house as reported earlier.

[5] = molecular target: T3, hCA II (Homo sapiens, UniProt P00918); experiment: stopped-flow CO2 hydrase assay, hCA II; assay type: biochemical
T3 construct: made in house
Excerpt: . The structure-activity relationship is discussed separately for the two compound subsets. Another code pattern is included for the MTDLs in Table 1, which indicates the derivative CAI type (sulphonamide, S or coumarin, C) and the number of atoms in the spacers connecting either berberine and the triazole (carbon atoms) or the triazole and the benzenesulfonamide/coumarin scaffolds (carbon or oxygen atoms).
as §4

[6] = test system: c-Kit1; experiment: CD melting experiments, c-Kit1 GQ; assay type: binding; settings: for ΔT1/2 c-Kit1: 2 molar equiv compound, T1/2 of DNA alone 55.0 °C; for ΔΔT1/2 c-Kit1: ΔT1/2 of compound minus ΔT1/2 of berberine, 2 molar equiv
Excerpt: as §1, §2

[7] = test system: c-Myc; experiment: CD melting experiments, c-Myc GQ; assay type: binding; settings: for ΔT1/2 c-Myc: 1 molar equiv compound, T1/2 of DNA alone 70.0 °C; for ΔΔT1/2 c-Myc: ΔT1/2 of compound minus ΔT1/2 of berberine, 1 molar equiv
Excerpt: as §1, §2

[8] = molecular target: T4, hCA XII (Homo sapiens, UniProt O43570); experiment: stopped-flow CO2 hydrase assay, hCA XII; assay type: biochemical; settings: for Selectivity index (SI) I/XII: hCA XII over hCA I; for Selectivity index (SI) II/XII: hCA XII over hCA II; for Ki: mean ± SEM of three assays
T4 construct: made in house
Excerpt: as §3

[9] = sulphonamides, inhibitor-enzyme incubation 15 min
[10] = sulphonamides, inhibitor-enzyme incubation 15 min, mean ± SEM of three assays
[11] = coumarins, inhibitor-enzyme incubation 6 h

T2 sequence (P00915 whole entry): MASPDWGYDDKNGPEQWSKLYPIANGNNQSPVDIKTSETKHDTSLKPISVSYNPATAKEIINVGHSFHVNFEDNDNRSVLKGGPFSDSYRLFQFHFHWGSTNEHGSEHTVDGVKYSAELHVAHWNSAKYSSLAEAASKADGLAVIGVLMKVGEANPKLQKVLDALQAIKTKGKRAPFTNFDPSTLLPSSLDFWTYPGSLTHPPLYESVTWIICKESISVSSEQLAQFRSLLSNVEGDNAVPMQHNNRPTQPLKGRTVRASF
T4 sequence (O43570 25-354): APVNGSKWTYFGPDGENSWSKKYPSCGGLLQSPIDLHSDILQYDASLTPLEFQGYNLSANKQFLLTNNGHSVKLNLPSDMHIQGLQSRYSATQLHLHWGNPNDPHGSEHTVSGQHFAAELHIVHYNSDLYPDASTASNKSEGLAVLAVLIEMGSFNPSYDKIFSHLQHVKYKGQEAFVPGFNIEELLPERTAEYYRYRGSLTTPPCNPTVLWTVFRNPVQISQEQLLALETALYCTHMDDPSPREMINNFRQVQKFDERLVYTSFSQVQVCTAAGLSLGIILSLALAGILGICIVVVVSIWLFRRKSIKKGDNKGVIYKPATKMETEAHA

SMILES	ΔT1/2 Tel23 [1] [°C]	ΔΔT1/2 Tel23 [1] [°C]	ΔT1/2 Hairpin [2]	Selectivity index (SI) I/IX [3]	Selectivity index (SI) II/IX [3]	Ki [3, 9] [µM]	Ki [4, 10] [µM]	Ki [5, 10]	ΔT1/2 c-Kit1 [6] [°C]	ΔΔT1/2 c-Kit1 [6] [°C]	ΔT1/2 c-Myc [7] [°C]	ΔΔT1/2 c-Myc [7] [°C]	Selectivity index (SI) I/XII [8]	Selectivity index (SI) II/XII [8]	Ki [8, 9] [µM]	Ki [3, 11] [µM]	Ki [4, 11] [µM]	Ki [5, 11] [µM]	Ki [8, 11] [µM]	ΔΔT1/2 c-Myc ([7]; listed as C-1,6) [°C]
COc1ccc2cc3[n+](cc2c1OCCCCCn1cc(COc2ccc(S(N)(=O)=O)cc2)nn1)CCc1cc2c(cc1-3)OCO2 [Compound 33, 10-Methoxy-9-((5–(4-((4-sulfamoylphenoxy)methyl)-1H-1,2,3-triazol-1-yl)pentyl)oxy)-5,6-dihydro-[1,3]dioxolo[4,5-g]isoquinolino[3,2-a]isoquinolin-7-ium hexafluorophosphate]	10.5	1.0	+0.2 °C	406.5	76.1	0.00054 ± 3e-05	0.219 ± 0.0162	0.0411 ± 0.0027 µM	18.5	5.5	12.5	0.5	75.7	14.2	0.0029 ± 0.0001	–	–	–	–	–
COc1ccc2cc3[n+](cc2c1OCCCS(N)(=O)=O)CCc1cc2c(cc1-3)OCO2 [Compound 47, 10-methoxy-9–(3-sulfamoylpropoxy)-5,6-dihydro-[1,3]dioxolo[4,5-g]isoquinolino[3,2-a]isoquinolin-7-ium hexafluorophosphate]	6.5	−3.0	+2.0 °C	4.2	1.2	0.0178 ± 0.0009	0.0751 ± 0.0054	0.0215 µM and 0.0221 µM	15.5	2.5	12.5	0.5	2.1	0.6	0.0359 ± 0.0021	–	–	–	–	–
COc1ccc2cc3[n+](cc2c1OCCCCn1cc(COc2ccc(S(N)(=O)=O)cc2)nn1)CCc1cc2c(cc1-3)OCO2 [Compound 31, 10-Methoxy-9–(4-(4-((4-sulfamoylphenoxy)methyl)-1H-1,2,3-triazol-1-yl)butoxy)-5,6-dihydro-[1,3]dioxolo[4,5-g]isoquinolino[3,2-a]isoquinolin-7-ium hexafluorophosphate]	8.0	−1.5	+0.2 °C	1308	102.1	0.00071 ± 4e-05	0.916 ± 0.0579	0.0715 ± 0.0053 µM	15.5	2.5	13.0	1.0	127.2	9.9	0.0072 ± 0.0005	–	–	–	–	–
COc1ccc2cc3[n+](cc2c1OCc1cn(CCCOc2ccc4ccc(=O)oc4c2)nn1)CCc1cc2c(cc1-3)OCO2 [Compound 42, 10-Methoxy-9-((1–(3-((2-oxo-2H-chromen-7-yl)oxy)propyl)-1H-1,2,3-triazol-4-yl)methoxy)-5,6-dihydro-[1,3]dioxolo[4,5-g]isoquinolino[3,2-a]isoquinolin-7-ium hexafluorophosphate]	10.5	1.0	+0.5 °C	> 284.9	> 284.9	–	–	–	17.0	4.0	16.0	4.0	> 980.4	> 980.4	–	0.0351 ± 0.0028	> 100	> 100	0.0102 ± 0.0008	–
COc1ccc2cc3[n+](cc2c1OCc1cn(CCCCCOc2ccc4ccc(=O)oc4c2)nn1)CCc1cc2c(cc1-3)OCO2 [Compound 44, 10-Methoxy-9-((1–(5-((2-oxo-2H-chromen-7-yl)oxy)pentyl)-1H-1,2,3-triazol-4-yl)methoxy)-5,6-dihydro-[1,3]dioxolo[4,5-g]isoquinolino[3,2-a]isoquinolin-7-ium hexafluorophosphate]	7.5	−2.0	+1.0 °C	> 1041	> 1041	–	–	–	17.5	4.5	–	>13.0	> 689.7	> 689.7	–	0.0096 ± 0.0005	> 100	> 100	0.0145 ± 0.0009	> 13.0
COc1ccc2cc3[n+](cc2c1OCCCCn1cc(CCOc2ccc4ccc(=O)oc4c2)nn1)CCc1cc2c(cc1-3)OCO2 [Compound 38, 10-Methoxy-9–(4-(4–(2-((2-oxo-2H-chromen-7-yl)oxy)ethyl)-1H-1,2,3-triazol-1-yl)butoxy)-5,6-dihydro-[1,3]dioxolo[4,5-g]isoquinolino[3,2-a]isoquinolin-7-ium hexafluorophosphate]	7.5	−2.0	-2.0 °C	> 332.2	> 332.2	–	–	–	17.5	4.5	15.0	3.0	> 598.8	> 598.8	–	0.0301 ± 0.0018	> 100	> 100	0.0167 ± 0.0012	–
COc1ccc2cc3[n+](cc2c1OCc1cn(-c2ccc(S(N)(=O)=O)cc2)nn1)CCc1cc2c(cc1-3)OCO2 [Compound 41, 10-Methoxy-9-((1–(4-sulfamoylphenyl)-1H-1,2,3-triazol-4-yl)methoxy)-5,6-dihydro-[1,3]dioxolo[4,5-g]isoquinolino[3,2-a]isoquinolin-7-ium hexafluorophosphate]	5.5	−4.0	+2.5 °C	307.1	8.5	0.0027 ± 0.0002	0.829 ± 0.0503	0.0229 ± 0.0014 µM	15.0	2.0	14.5	2.5	135.9	3.8	0.0061 ± 0.0003	–	–	–	–	–
